Reference: patent US20040071967A1, “Microcapsule containing phase-change material and nucleating agent” (priority 2000, published 2004)
Where two headings read alike, the source gives them in different places.

How the values were obtained:
Format in all cases: physicochemical
[1] = Critical aggregation concentration (solubility limit or critical micelle concentration)
Experimental: (§1) The critical aggregation concentrations (solubility limit or critical micelle concentration) were determined by intersection of the linear portion of a surface tension/In concentration curve with the limiting surface tension as is described in many textbooks. The limiting surface tensions at 0.1 and 20 bubbles/second (b/s) represent the lowest surface tensions in water which can be achieved at the given surface creation rate for a given surfactant regardless of the amount of surfactant used. These values give information about the relative ability to a surfactant to reduce surface defects under near-equilibrium condition (0.1 b/s) through very dynamic conditions (20 b/s). Lower surface tensions would allow the elimination of defects upon application of a formulation onto lower energy surfaces.

[2] = Ross-Miles foam test based upon ASTM D 1173-53, 0.1 wt % solution; conditions: Tables 5 and 6; for RM Foam initial: initial foam height
Experimental: The foam height is measured at the completion of the addition (“Initial Foam Height”) and the time required for the foam to dissipate is recorded (“Time to 0 Foam”). This test provides a comparison between the foaming characteristics of various surfactant solutions. In general, in coatings, inks, and agricultural formulations, foam is undesirable because is complicates handling and can lead to coating and print defects, and to inefficient application of agricultural materials.

[3] = Dynamic surface tension of aqueous solutions, maximum bubble pressure method; conditions: for γ (0.1% solution) 1 b/s / γ (0.1% solution) 6 b/s / limiting γ 0.1 b/s / limiting γ 20 b/s / pC20: Tables 5 and 6; for limiting γ 0.1 b/s / limiting γ 20 b/s: lowest surface tension in water; for pC20: negative logarithm of molar concentration giving 52.1 dyne/cm at 0.1 b/s
Experimental: as §1, with “In practical terms, high bubble rates correspond to high printing speeds in lithographic printing, high spray or roller velocities in coating applications, and rapid application rates for agricultural products. […] This value is a measure of the efficiency of a surfactant. […] The critical” for “The critical”

## 3.5 mole ethoxylate of 2,4,7,9-tetramethyl-5-decyne-4,7-diol capped with 2 moles of propylene oxide [Example 3]
[1]
  Sol Limit: 0.21 wt %
[2]
  RM Foam initial: 1.0 cm
[2]; time to 0 foam
  RM Foam (t to 0): (10 s)
[3]; 1 b/s
  γ (0.1% solution) 1 b/s: 33.6 dyne/cm
[3]; 6 b/s
  γ (0.1% solution) 6 b/s: 36.6 dyne/cm
[3]; 0.1 b/s
  limiting γ 0.1 b/s: 29.3 dyne/cm
[3]; 20 b/s
  limiting γ 20 b/s: 31.4 dyne/cm
[3]
  pC20: 4.07

## 10 mole EO/2 mole PO block derivative of 2,4,7,9-tetramethyl-5-decyne-4,7-diol [Example 5]
[1]; water, Tables 5 and 6, unit printed only in Table 7 footnote
  Sol Limit: (0.78) wt %
[2]; cm after 5 minutes
  RM Foam (foam height remaining): (1.3) cm
[2]
  RM Foam initial: 2.1 cm
[3]; 1 b/s
  γ (0.1% solution) 1 b/s: 42.0 dyne/cm
[3]; 6 b/s
  γ (0.1% solution) 6 b/s: 44.3 dyne/cm
[3]; 0.1 wt % in distilled water, 0.1 b/s
  Dynamic Surface Tension: 40.5 dyne/cm
[3]; 0.1 wt % in distilled water, 1 b/s
  Dynamic Surface Tension: 42.0 dyne/cm
[3]; 0.1 wt % in distilled water, 6 b/s
  Dynamic Surface Tension: 44.3 dyne/cm
[3]; 0.1 wt % in distilled water, 15 b/s
  Dynamic Surface Tension: 47.1 dyne/cm
[3]; 0.1 wt % in distilled water, 20 b/s
  Dynamic Surface Tension: 48.1 dyne/cm
[3]; 0.5 wt % in distilled water, 0.1 b/s
  Dynamic Surface Tension: 32.4 dyne/cm
[3]; 0.5 wt % in distilled water, 1 b/s
  Dynamic Surface Tension: 33.6 dyne/cm
[3]; 0.5 wt % in distilled water, 6 b/s
  Dynamic Surface Tension: 35.1 dyne/cm
[3]; 0.5 wt % in distilled water, 15 b/s
  Dynamic Surface Tension: 36.6 dyne/cm
[3]; 0.5 wt % in distilled water, 20 b/s
  Dynamic Surface Tension: 37.2 dyne/cm
[3]; 1.0 wt % in distilled water, 0.1 b/s
  Dynamic Surface Tension: 29.8 dyne/cm
[3]; 1.0 wt % in distilled water, 1 b/s
  Dynamic Surface Tension: 30.5 dyne/cm
[3]; 1.0 wt % in distilled water, 6 b/s
  Dynamic Surface Tension: 32.1 dyne/cm
[3]; 1.0 wt % in distilled water, 15 b/s
  Dynamic Surface Tension: 33.0 dyne/cm
[3]; 1.0 wt % in distilled water, 20 b/s
  Dynamic Surface Tension: 33.7 dyne/cm
[3]; 0.1 b/s
  limiting γ 0.1 b/s: 29.8 dyne/cm
[3]; 20 b/s
  limiting γ 20 b/s: 33.7 dyne/cm
[3]
  pC20: 4.05
